Assay results as given in patent US4695545A, “Culture and process for producing A41030 antibiotics” (Eli Lilly and Company, priority 1984, dated 1987).

Key:
[1] = system: Streptococcus sp. Group D; assay: MIC aerobic bacteria, standard agar-dilution assay; assay type: cell-based
[2] = system: Propionibacterium acnes; assay: MIC anaerobic bacteria, agar-dilution; assay type: cell-based; conditions: Propionibacterium acnes 79; agar-dilution (Table 9)
[3] = system: Clostridium septicum; assay: MIC anaerobic bacteria, agar-dilution; assay type: cell-based; conditions: Clostridium septicum 1128
[4] = Solubility in solvents; assay type: physicochemical; conditions: qualitative
Excerpt: As many as seven antibiotic factors are recovered from the fermentation and are obtained as a mixture, the A41030 complex. It will be recognized that the ratio of the factors in the A41030 complex will vary, depending upon the fermentation conditions used. The individual factors A, B, C, D, E, F, and G are separated and isolated as individual compounds, as hereinafter described.

[5] = Electrometric titration (pKa); assay type: physicochemical; conditions: electrometric titration in 66% dimethylformamide in water; stated as possible
Excerpt: Antibiotic A41030 factor A is a white, crystalline solid.

[6] = system: Bacteroides melaninogenicus; assay: MIC anaerobic bacteria, agar-dilution; assay type: cell-based
[7] = system: Bacteroides thetaiotaomicron; assay: MIC anaerobic bacteria, agar-dilution; assay type: cell-based; conditions: Bacteroides thetaiotaomicron 1438
[8] = system: Streptococcus pyogenes; assay: MIC aerobic bacteria, standard agar-dilution assay; assay type: cell-based; conditions: Streptococcus pyogenes C203, 24 hours
[9] = system: Bacteroides fragilis; assay: MIC anaerobic bacteria, agar-dilution; assay type: cell-based
[10] = system: Staphylococcus aureus; assay: MIC aerobic bacteria, standard agar-dilution assay; assay type: cell-based; conditions: Staphylococcus aureus S13E; agar-dilution, 24 hours
[11] = system: Peptococcus asaccharolyticus; assay: MIC anaerobic bacteria, agar-dilution; assay type: cell-based; conditions: Peptococcus asaccharolyticus 1302
[12] = system: Peptostreptococcus intermedius; assay: MIC anaerobic bacteria, agar-dilution; assay type: cell-based; conditions: Peptostreptococcus intermedius 1264
[13] = system: Peptococcus prevoti; assay: MIC anaerobic bacteria, agar-dilution; assay type: cell-based; conditions: Peptococcus prevoti 1281
[14] = system: Fusobacterium symbiosum; assay: MIC anaerobic bacteria, agar-dilution; assay type: cell-based; conditions: Fusobacterium symbiosum 1470
[15] = system: Eubacterium aerofaciens; assay: MIC anaerobic bacteria, agar-dilution; assay type: cell-based; conditions: Eubacterium aerofaciens 1235
[16] = system: Fusobacterium necrophorum; assay: MIC anaerobic bacteria, agar-dilution; assay type: cell-based; conditions: Fusobacterium necrophorum 6054A
[17] = system: Bacteroides corrodens; assay: MIC anaerobic bacteria, agar-dilution; assay type: cell-based; conditions: Bacteroides corrodens 1874
[18] = system: Staphylococcus epidermidis; assay: MIC aerobic bacteria, standard agar-dilution assay; assay type: cell-based
[19] = system: Peptostreptococcus anaerobius; assay: MIC anaerobic bacteria, agar-dilution; assay type: cell-based; conditions: Peptostreptococcus anaerobius 1428
[20] = system: Bacteroides vulgatis; assay: MIC anaerobic bacteria, agar-dilution; assay type: cell-based; conditions: Bacteroides vulgatis 1211
[21] = system: Clostridium difficile; assay: MIC anaerobic bacteria, agar-dilution; assay type: cell-based; conditions: Clostridium difficile 2994; agar-dilution (Table 9)
[22] = system: Streptococcus pneumoniae; assay: MIC aerobic bacteria, standard agar-dilution assay; assay type: cell-based; conditions: Streptococcus pneumoniae Park I, 24 hours
[23] = system: Clostridium difficile; assay: MIC against Clostridium difficile strains, agar-dilution; assay type: cell-based
Excerpt: The A41030 antibiotic factors A, B, C, D, E, F, and G, are also active against a number of strains of Clostridium difficile, as determined by the agardilution method.

[24] = system: Haemophilus influenzae; assay: MIC aerobic bacteria, standard agar-dilution assay; assay type: cell-based
[25] = system: Clostridium perfringens; assay type: cell-based; conditions: Clostridium perfringens 81; agar-dilution
[26] = system: Escherichia coli; assay: MIC aerobic bacteria, standard agar-dilution assay; assay type: cell-based; conditions: Escherichia coli TEM, 24 hours
[27] = Streptococcus sp. Group D 9960, 24 hours
[28] = Streptococcus sp. Group D X66, 24 hours
[29] = Bacteroides melaninogenicus 2736
[30] = Staphylococcus epidermidis EPI1, 24 hours
[31] = Haemophilus influenzae 76, 24 hours
[32] = Haemophilus influenzae C.L., 24 hours

A41030 factor F
MIC [1, 27]: 4 µg/mL
MIC [1, 28]: 4 µg/mL
MIC [2]: 1.0 µg/mL
MIC [3]: 1.0 µg/mL
solubility (solvents) [4]: soluble in the same solvents as factor A
possibly additional pKa's [5]: > 10
MIC [6, 29]: 1.0 µg/mL
MIC [7]: 64 µg/mL
MIC [8]: 2 µg/mL
MIC ([9]; Bacteroides fragilis 111): 32 µg/mL
MIC ([9]; Bacteroides fragilis 1877): 32 µg/mL
MIC ([9]; Bacteroides fragilis 1936B): 32 µg/mL
MIC [10]: 1 µg/mL
MIC [11]: ≤ 0.25 µg/mL
MIC [12]: 1.0 µg/mL
MIC [13]: 32 µg/mL
MIC [14]: 1.0 µg/mL
MIC [15]: 1.0 µg/mL
MIC [16]: 1.0 µg/mL
MIC [17]: 32 µg/mL
MIC [18, 30]: 0.25 µg/mL
MIC [19]: 32 µg/mL
MIC [20]: 32 µg/mL
MIC [21]: 1.0 µg/mL
MIC [22]: 2 µg/mL
MIC ([23]; Clostridium difficile 78): 1.0 µg/mL
MIC ([23]; Clostridium difficile 107B): 1.0 µg/mL
MIC ([23]; Clostridium difficile 111F): 2 µg/mL
MIC ([23]; Clostridium difficile 1153): 2 µg/mL
MIC ([23]; Clostridium difficile 2634): 2 µg/mL
MIC ([23]; Clostridium difficile 3424-5B): 1.0 µg/mL
MIC ([23]; Clostridium difficile 3816): 1.0 µg/mL
MIC ([23]; Clostridium difficile 3950D): 1.0 µg/mL
MIC ([23]; Clostridium difficile 6890): 1.0 µg/mL
MIC ([23]; Clostridium difficile 8484): 1.0 µg/mL
MIC ([23]; Clostridium difficile A-194): 1.0 µg/mL
MIC ([23]; Clostridium difficile A-195): 1.0 µg/mL
MIC ([23]; Clostridium difficile A-196): 2 µg/mL
MIC ([23]; Clostridium difficile A-279): 1.0 µg/mL
MIC ([23]; Clostridium difficile A-280): 1.0 µg/mL
MIC ([23]; Clostridium difficile A-281): 2 µg/mL
MIC ([23]; Clostridium difficile WAL-2112): 1.0 µg/mL
MIC ([23]; Clostridium difficile WAL-3657): 1.0 µg/mL
MIC ([23]; Clostridium difficile WAL-4268): 1.0 µg/mL
MIC [24, 31]: 32 µg/mL
MIC [24, 32]: 32 µg/mL
MIC [25]: 1.0 µg/mL

A41030 factor E
MIC [1, 27]: 1 µg/mL
MIC [1, 28]: 1 µg/mL
MIC [2]: 0.5 µg/mL
MIC [3]: 0.5 µg/mL
solubility (solvents) [4]: soluble in the same solvents as factor A
possibly additional pKa's [5]: > 10
MIC [6, 29]: 32 µg/mL
MIC [7]: 64 µg/mL
MIC [8]: 0.25 µg/mL
MIC ([9]; Bacteroides fragilis 111): 64 µg/mL
MIC ([9]; Bacteroides fragilis 1877): 32 µg/mL
MIC ([9]; Bacteroides fragilis 1936B): 64 µg/mL
MIC [10]: 0.25 µg/mL
MIC [11]: ≤ 0.25 µg/mL
MIC [12]: 32 µg/mL
MIC [13]: 32 µg/mL
MIC [14]: 1.0 µg/mL
MIC [15]: 0.5 µg/mL
MIC [16]: 0.5 µg/mL
MIC [17]: 64 µg/mL
MIC [18, 30]: 0.25 µg/mL
MIC [19]: 32 µg/mL
MIC [20]: 32 µg/mL
MIC [21]: 0.5 µg/mL
MIC [22]: 0.25 µg/mL
MIC ([23]; Clostridium difficile 78): 0.5 µg/mL
MIC ([23]; Clostridium difficile 107B): 0.5 µg/mL
MIC ([23]; Clostridium difficile 111F): 0.5 µg/mL
MIC ([23]; Clostridium difficile 1153): 1.0 µg/mL
MIC ([23]; Clostridium difficile 2634): 1.0 µg/mL
MIC ([23]; Clostridium difficile 3424-5B): 0.5 µg/mL
MIC ([23]; Clostridium difficile 3816): 0.5 µg/mL
MIC ([23]; Clostridium difficile 3950D): 0.5 µg/mL
MIC ([23]; Clostridium difficile 6890): 0.5 µg/mL
MIC ([23]; Clostridium difficile 8484): 0.5 µg/mL
MIC ([23]; Clostridium difficile A-194): 0.5 µg/mL
MIC ([23]; Clostridium difficile A-195): 0.5 µg/mL
MIC ([23]; Clostridium difficile A-196): 1.0 µg/mL
MIC ([23]; Clostridium difficile A-279): 0.5 µg/mL
MIC ([23]; Clostridium difficile A-280): 0.5 µg/mL
MIC ([23]; Clostridium difficile A-281): 1.0 µg/mL
MIC ([23]; Clostridium difficile WAL-2112): 0.5 µg/mL
MIC ([23]; Clostridium difficile WAL-3657): 0.5 µg/mL
MIC ([23]; Clostridium difficile WAL-4268): 0.5 µg/mL
MIC [24, 31]: 8 µg/mL
MIC [24, 32]: 8 µg/mL
MIC [25]: 1.0 µg/mL

A41030 factor D
MIC [1, 27]: 1 µg/mL
MIC [1, 28]: 1 µg/mL
MIC [2]: 0.25 µg/mL
MIC [3]: 0.25 µg/mL
solubility (solvents) [4]: soluble in the same solvents as factor A
possibly additional pKa's [5]: > 10
MIC ([6]; Bacteroides melaninogenicus 1856/28): > 64 µg/mL
MIC [6, 29]: 0.5 µg/mL
MIC [7]: 32 µg/mL
MIC [8]: 0.5 µg/mL
MIC ([9]; Bacteroides fragilis 111): 32 µg/mL
MIC ([9]; Bacteroides fragilis 1877): 32 µg/mL
MIC ([9]; Bacteroides fragilis 1936B): 32 µg/mL
MIC [10]: 0.25 µg/mL
MIC [12]: 1.0 µg/mL
MIC [13]: 0.25 µg/mL
MIC [14]: 0.5 µg/mL
MIC [26]: 64 µg/mL
MIC [15]: 0.5 µg/mL
MIC [17]: 32 µg/mL
MIC [18, 30]: 0.25 µg/mL
MIC ([18]; Staphylococcus epidermidis EPI2, 24 hours): 1 µg/mL
MIC [19]: 0.5 µg/mL
MIC [20]: 32 µg/mL
MIC [21]: 0.5 µg/mL
MIC [22]: 0.5 µg/mL
MIC ([23]; Clostridium difficile 78): ≤ 0.25 µg/mL
MIC ([23]; Clostridium difficile 107B): ≤ 0.25 µg/mL
MIC ([23]; Clostridium difficile 111F): ≤ 0.25 µg/mL
MIC ([23]; Clostridium difficile 1153): 1.0 µg/mL
MIC ([23]; Clostridium difficile 2634): 0.5 µg/mL
MIC ([23]; Clostridium difficile 3424-5B): 0.5 µg/mL
MIC ([23]; Clostridium difficile 3816): 0.5 µg/mL
MIC ([23]; Clostridium difficile 3950D): 0.5 µg/mL
MIC ([23]; Clostridium difficile 6890): 0.5 µg/mL
MIC ([23]; Clostridium difficile 8484): ≤ 0.25 µg/mL
MIC ([23]; Clostridium difficile A-194): ≤ 0.25 µg/mL
MIC ([23]; Clostridium difficile A-195): ≤ 0.25 µg/mL
MIC ([23]; Clostridium difficile A-196): 0.5 µg/mL
MIC ([23]; Clostridium difficile A-279): ≤ 0.25 µg/mL
MIC ([23]; Clostridium difficile A-280): ≤ 0.25 µg/mL
MIC ([23]; Clostridium difficile A-281): 0.5 µg/mL
MIC ([23]; Clostridium difficile WAL-2112): ≤ 0.25 µg/mL
MIC ([23]; Clostridium difficile WAL-3657): ≤ 0.25 µg/mL
MIC ([23]; Clostridium difficile WAL-4268): ≤ 0.25 µg/mL
MIC [24, 31]: 8 µg/mL
MIC [24, 32]: 8 µg/mL
MIC [25]: 0.5 µg/mL
